Test in all cases: NCI-60 cell line screen, 48 h
The subject of assay [1] is OVCAR-8.
In assay [2] the test system is 786-0.
The test system of assay [3] is HCT-116.
The subject of assay [4] is A549.
The subject of assay [5] is RXF 393.
The subject of assay [6] is Malme-3M.
Assay [7] concerns TK-10.
For assay [8], the system named is SK-MEL-5.
For assay [9], the system named is SN12C.
Assay [10] concerns HCC 2998.
The test system of assay [11] is HT-29.
The test system of assay [12] is EKVX.
Assay [13] concerns NCI-H23.
The test system of assay [14] is SF-539.
Assay [15] has as its system NCI-H226.
The subject of assay [16] is SF-295.
In assay [17] the test system is SK-MEL-28.
Assay [18] concerns OVCAR-5.

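A five-concentration, 48-hour dose response in 96-well plates underlies each endpoint, interpolated linearly between surrounding concentrations. GI50 marks 50% less growth.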 Active and inactive are the calls of the source. Rule as the data show it: active = GI50 up to about 1.1 µM and inactive = higher. Some results are limits rather than exact numbers.

Regarding `COc1ccc(C(=O)/C(=N/Nc2ccccc2)c2ccc(OC)cc2)cc1`, the GI50 in assay [1] was > 100 µM (inactive); in [2], > 100 µM (inactive); in assay [3], > 100 µM (inactive); in [4], > 100 µM (inactive); in assay [5] it was 31.9 µM (inactive); in assay [6] it was > 100 µM (inactive). The GI50 was > 100 µM (inactive) in assay [7]; > 100 µM (inactive) in assay [8]; > 100 µM (inactive) in assay [9]; > 100 µM (inactive) in assay [10]; 18.3 µM (inactive) in [11]; > 100 µM (inactive) in [12]. Besides, the GI50 in assay [13], in assay [14], in assay [15], in [16], in assay [17] and in assay [18] was > 100 µM (inactive) each time.
For `O=C(O/C(=C(/N=N/c1ccccc1)c1ccccc1)c1ccccc1)c1ccccc1`, the GI50 in assay [1], in assay [2], in assay [3], in [4], in assay [5] and in assay [6] was > 100 µM (inactive) throughout. Besides, the GI50 in assay [7], in assay [8], in assay [9], in [10], in [11] and in assay [12] was > 100 µM (inactive) throughout. In addition, the GI50 in assay [13], in assay [14], in assay [15], in [16], in assay [17] and in [18] was > 100 µM (inactive) in each case.
In the case of `ClC[Si]12OCCN(CCO1)CCO2`, the GI50 in assay [1], in assay [2], in assay [3], in [4], in assay [5] and in assay [6] was > 100 µM (inactive) in each case. The GI50 in assay [7], in assay [8], in assay [9], in [10], in assay [11] and in assay [13] was > 100 µM (inactive) throughout. The GI50 in assay [14], in assay [15], in [16], in assay [17] and in [18] was > 100 µM (inactive) each time.
With `Cn1c(=O)nc2n(-c3cc(Cl)ccc3Cl)c3ccccc3nc-2c1=O`, the GI50 in assay [1] is 3.34 µM (inactive); in assay [2] it was 8.45 µM (inactive); in assay [3], 4.33 µM (inactive); in assay [4], 4 µM (inactive); in [5] it was 14.8 µM (inactive); in [6], 3.78 µM (inactive). Besides, the GI50 in assay [7] is 12.3 µM (inactive); in assay [8], 1.95 µM (inactive); in assay [9] it was 4.48 µM (inactive); in assay [10], 2.68 µM (inactive); in assay [11], 1.54 µM (inactive); in assay [12], 3.88 µM (inactive). The GI50 in assay [13] is 0.299 µM (active); in assay [14] it was 5.92 µM (inactive); in assay [15], 7.69 µM (inactive); in [16], 7.62 µM (inactive); in [18] it was 13 µM (inactive).

(Values after ChEMBL document CHEMBL1201862, “PubChem BioAssay data set” (2004).)
